Measured values as given in US8236818B2, “Substituted imidazopyridine derivatives as melanocortin-4 receptor antagonists” (Santhera Pharmaceuticals (Schweiz) AG, priority 2007, dated 2012).

target: T1, melanocortin-4 receptor (Homo sapiens, UniProt P32245); experiment: Membrane binding assay (fluorescence polarization, competition with fluorescence labeled NDP-alpha-MSH); conditions: read-out: hMC-4R binding assay IC50/μM
T1 construct: expressed in transfected cells; host or cells: HEK293 cells (membrane preparations)
T1 sequence (P32245 whole entry): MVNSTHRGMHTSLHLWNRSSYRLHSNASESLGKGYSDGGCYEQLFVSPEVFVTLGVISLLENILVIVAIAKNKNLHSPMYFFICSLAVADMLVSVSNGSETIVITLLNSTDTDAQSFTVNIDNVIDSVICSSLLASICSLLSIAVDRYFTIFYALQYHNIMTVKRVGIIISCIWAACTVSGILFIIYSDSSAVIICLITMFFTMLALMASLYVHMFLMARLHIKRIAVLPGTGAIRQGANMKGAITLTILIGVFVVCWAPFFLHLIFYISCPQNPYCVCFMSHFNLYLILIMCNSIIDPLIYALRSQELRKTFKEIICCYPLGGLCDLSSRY

Q: With `CC(C)CCN(CCC(C)C)C(=O)c1ccc2nc(-c3nccs3)c(CN3CCC(N)CC3)n2c1` [Example 135] as the compound, how does the IC50 read?
A: > 1 µM

Q: Which IC50 does the source give for `CC(C)CCN(CCC(C)C)C(=O)c1ccc2nc(-c3ccc(Cl)cc3)c(CN3CCC(N)CC3)n2c1` [Example 117] here?
A: 0.1 to 1 µM

Q: Which IC50 does the source give for `O=C(c1ccc2nc(-c3ccc(OCCO)nc3)c(CCCN3CCCC3)n2c1)N(CCC1CC1)CCC1CC1` [Example 108] here?
A: 0.1 to 1 µM

Q: `CCCN(CC1CC1)C(=O)c1ccc2nc(-c3ccc(C#N)cc3)c(CCCN3CCCC3)n2c1` [Example 141] was tested. Which IC50 did it give?
A: 0.1 to 1 µM

Q: `COCCOc1ccc(-c2nc3ccc(C(=O)N(CCC(C)C)CCC(C)C)cn3c2CCCN2CCCC2)cn1` [Example 96] was tested. Which IC50 did it give?
A: < 0.1 µM

Q: Which IC50 does the source give for `CC(C)CCN(CCC(C)C)C(=O)c1ccc2nc(-c3ccc(C(N)=O)cc3)c(CCCN3CCCC3)n2c1` [Example 25] here?
A: < 0.1 µM

Q: How did the IC50 turn out when `Cc1cccc(-c2nc3ccc(C(=O)N(CCC(C)C)CCC(C)C)cn3c2CCCN2CCCC2)n1` [Example 41] was run?
A: < 0.1 µM

Q: Which IC50 does the source give for `COc1ccc(-c2nc3ccc(C(=O)N(CCC(C)C)CCC(C)C)cn3c2CCCN)cc1` [Example 3] here?
A: 0.1 to 1 µM

Q: `CC(C)CCN(CCC(C)C)C(=O)c1ccc2nc(-c3cccnc3N)c(CCCN3CCCC3)n2c1` [Example 90] was tested. Which IC50 did it give?
A: 0.1 to 1 µM

Q: `CC(=O)OCCOc1ccc(-c2nc3ccc(C(=O)N(CCC(C)C)CCC(C)C)cn3c2CCCN2CCCC2C)cn1` (stereo not drawn) [Example 102] was tested. Which IC50 did it give?
A: < 0.1 µM

Q: `CC(C)CCN(CCC1CC1)C(=O)c1ccc2nc(-c3ccc(C#N)cc3)c(CCCN3CCCC3)n2c1` [Example 143] was tested. Which IC50 did it give?
A: < 0.1 µM

Q: How did the IC50 turn out when `COc1cccc(-c2nc3ccc(C(=O)N(CCC(C)C)CCC(C)C)cn3c2CCCNC(C)C)c1` [Example 7] was run?
A: 0.1 to 1 µM

Q: For `C#CCN(C)CCCc1c(-c2cccc(OC)c2)nc2ccc(C(=O)N(CCC(C)C)CCC(C)C)cn12` [Example 38], which IC50 is on record?
A: > 1 µM

Q: `CC(C)CCN(CCC(C)C)C(=O)c1ccc2nc(-c3cc(O)ccn3)c(CCCN(C)C)n2c1` [Example 46] was tested. Which IC50 did it give?
A: 0.1 to 1 µM

Q: `COc1cccc(-c2nc3ccc(C(=O)N(CCC(C)C)CCC(C)C)cn3c2CCCNCC2CC2)c1` [Example 10] was tested. Which IC50 did it give?
A: > 1 µM

Q: Which IC50 does the source give for `CC(C)CCN(CCC(C)C)C(=O)c1ccc2nc(-c3ccc(OCCO)nc3)c(CCCN3CCCC3)n2c1` [Example 79] here?
A: < 0.1 µM

Q: For `CC(C)CCN(CCC(C)C)C(=O)c1ccc2nc(-c3ccc(Cl)cc3)c(CCCN3CCCC3)n2c1` [Example 19], which IC50 is on record?
A: < 0.1 µM

Q: Which IC50 does the source give for `CC(C)CCN(CCC(C)C)C(=O)c1ccc2nc(-c3ccc4c(c3)NC(=O)CO4)c(CCCN3CCCC3)n2c1` [Example 43] here?
A: < 0.1 µM

Q: How did the IC50 turn out when `CC(C)CCN(CCC(C)C)C(=O)c1ccc2nc(-c3ncco3)c(CCCN3CCC3)n2c1` [Example 74] was run?
A: 0.1 to 1 µM

Q: `COc1ccc(-c2nc3ccc(C(=O)N(CCC(C)C)CCC(C)C)cn3c2CCCN(C)C)cn1` [Example 83] was tested. Which IC50 did it give?
A: < 0.1 µM

Q: For `CC(C)CCN(CCC(C)C)C(=O)c1ccc2nc(-c3ccc(OCCO)nc3)c(CCCN3CCCC3C)n2c1` (stereo not drawn) [Example 104], which IC50 is on record?
A: < 0.1 µM

Q: For `CC(C)CCN(CCC(C)C)C(=O)c1ccc2nc(-c3cccc(C#N)c3)c(CN3CCC(N)CC3)n2c1` [Example 122], which IC50 is on record?
A: 0.1 to 1 µM

Q: How did the IC50 turn out when `CC(C)CCN(CCC(C)C)C(=O)c1ccc2nc(-c3ccc(=O)n(CCO)c3)c(CCCN3CCCC3)n2c1` [Example 81] was run?
A: < 0.1 µM

Q: Which IC50 does the source give for `CC(C)CCN(CCC(C)C)C(=O)c1ccc2nc(-c3ncco3)c(CCCN3CC[C@@H](F)C3)n2c1` [Example 72] here?
A: 0.1 to 1 µM

Q: `O=C(c1ccc2nc(-c3ccc(=O)[nH]c3)c(CCCN3CCCC3)n2c1)N(CCC1CC1)CCC1CC1` [Example 148] was tested. Which IC50 did it give?
A: 0.1 to 1 µM

Q: For `CC(C)CCN(CCC(C)C)C(=O)c1ccc2nc(-c3ccc(Cl)cc3)c(CCCN(C)C)n2c1` [Example 20], which IC50 is on record?
A: 0.1 to 1 µM

Q: How did the IC50 turn out when `COc1cccc(-c2nc3ccc(C(=O)N(CCC(C)C)CCC(C)C)cn3c2CCCN(C)C)c1` [Example 28] was run?
A: 0.1 to 1 µM

Q: For `COc1ccc(-c2nc3ccc(C(=O)N(CCC(C)C)CCC(C)C)cn3c2CCCN(C)C)cc1` [Example 5], which IC50 is on record?
A: 0.1 to 1 µM

Q: How did the IC50 turn out when `CC(C)CCN(CCC(C)C)C(=O)c1ccc2nc(-c3ccccc3)c(CN3CCC(N)CC3)n2c1` [Example 133] was run?
A: 0.1 to 1 µM

target: T1, melanocortin-4 receptor; experiment: Functional assay (cAMP fluorescence polarization, membrane based, agonistic activity); format: biochemical; conditions: 2 h; read-out: % activation functional assay

Q: How did the Emax turn out when `CC(C)CCN(CCC(C)C)C(=O)c1ccc2nc(-c3nccs3)c(CN3CCC(N)CC3)n2c1` [Example 135] was run?
A: 0%

Q: `CC(C)CCN(CCC(C)C)C(=O)c1ccc2nc(-c3ccc(Cl)cc3)c(CN3CCC(N)CC3)n2c1` [Example 117] was tested. Which Emax did it give?
A: 0%

Q: With `O=C(c1ccc2nc(-c3ccc(OCCO)nc3)c(CCCN3CCCC3)n2c1)N(CCC1CC1)CCC1CC1` [Example 108] as the compound, how does the Emax read?
A: -19%

Q: For `CCCN(CC1CC1)C(=O)c1ccc2nc(-c3ccc(C#N)cc3)c(CCCN3CCCC3)n2c1` [Example 141], which Emax is on record?
A: 0%

Q: `COCCOc1ccc(-c2nc3ccc(C(=O)N(CCC(C)C)CCC(C)C)cn3c2CCCN2CCCC2)cn1` [Example 96] was tested. Which Emax did it give?
A: 0%

Q: How did the Emax turn out when `CC(C)CCN(CCC(C)C)C(=O)c1ccc2nc(-c3ccc(C(N)=O)cc3)c(CCCN3CCCC3)n2c1` [Example 25] was run?
A: 0%

Q: For `Cc1cccc(-c2nc3ccc(C(=O)N(CCC(C)C)CCC(C)C)cn3c2CCCN2CCCC2)n1` [Example 41], which Emax is on record?
A: 0%

Q: Which Emax does the source give for `COc1ccc(-c2nc3ccc(C(=O)N(CCC(C)C)CCC(C)C)cn3c2CCCN)cc1` [Example 3] here?
A: 0%

Q: For `CC(C)CCN(CCC(C)C)C(=O)c1ccc2nc(-c3cccnc3N)c(CCCN3CCCC3)n2c1` [Example 90], which Emax is on record?
A: -41%

Q: For `CC(=O)OCCOc1ccc(-c2nc3ccc(C(=O)N(CCC(C)C)CCC(C)C)cn3c2CCCN2CCCC2C)cn1` (stereo not drawn) [Example 102], which Emax is on record?
A: -15%

Q: How did the Emax turn out when `CC(C)CCN(CCC1CC1)C(=O)c1ccc2nc(-c3ccc(C#N)cc3)c(CCCN3CCCC3)n2c1` [Example 143] was run?
A: 0%

Q: Which Emax does the source give for `COc1cccc(-c2nc3ccc(C(=O)N(CCC(C)C)CCC(C)C)cn3c2CCCNC(C)C)c1` [Example 7] here?
A: 0%

Q: How did the Emax turn out when `C#CCN(C)CCCc1c(-c2cccc(OC)c2)nc2ccc(C(=O)N(CCC(C)C)CCC(C)C)cn12` [Example 38] was run?
A: 0%

Q: For `CC(C)CCN(CCC(C)C)C(=O)c1ccc2nc(-c3cc(O)ccn3)c(CCCN(C)C)n2c1` [Example 46], which Emax is on record?
A: 0%

Q: With `COc1cccc(-c2nc3ccc(C(=O)N(CCC(C)C)CCC(C)C)cn3c2CCCNCC2CC2)c1` [Example 10] as the compound, how does the Emax read?
A: 0%

Q: For `CC(C)CCN(CCC(C)C)C(=O)c1ccc2nc(-c3ccc(OCCO)nc3)c(CCCN3CCCC3)n2c1` [Example 79], which Emax is on record?
A: 11%

Q: How did the Emax turn out when `CC(C)CCN(CCC(C)C)C(=O)c1ccc2nc(-c3ccc(Cl)cc3)c(CCCN3CCCC3)n2c1` [Example 19] was run?
A: 0%

Q: For `CC(C)CCN(CCC(C)C)C(=O)c1ccc2nc(-c3ccc4c(c3)NC(=O)CO4)c(CCCN3CCCC3)n2c1` [Example 43], which Emax is on record?
A: 0%

Q: For `CC(C)CCN(CCC(C)C)C(=O)c1ccc2nc(-c3ncco3)c(CCCN3CCC3)n2c1` [Example 74], which Emax is on record?
A: 1%

Q: `COc1ccc(-c2nc3ccc(C(=O)N(CCC(C)C)CCC(C)C)cn3c2CCCN(C)C)cn1` [Example 83] was tested. Which Emax did it give?
A: -1%

Q: `CC(C)CCN(CCC(C)C)C(=O)c1ccc2nc(-c3ccc(OCCO)nc3)c(CCCN3CCCC3C)n2c1` (stereo not drawn) [Example 104] was tested. Which Emax did it give?
A: -15%

Q: `CC(C)CCN(CCC(C)C)C(=O)c1ccc2nc(-c3cccc(C#N)c3)c(CN3CCC(N)CC3)n2c1` [Example 122] was tested. Which Emax did it give?
A: 0%

Q: `CC(C)CCN(CCC(C)C)C(=O)c1ccc2nc(-c3ccc(=O)n(CCO)c3)c(CCCN3CCCC3)n2c1` [Example 81] was tested. Which Emax did it give?
A: -9%

Q: How did the Emax turn out when `CC(C)CCN(CCC(C)C)C(=O)c1ccc2nc(-c3ncco3)c(CCCN3CC[C@@H](F)C3)n2c1` [Example 72] was run?
A: 2%

Q: With `O=C(c1ccc2nc(-c3ccc(=O)[nH]c3)c(CCCN3CCCC3)n2c1)N(CCC1CC1)CCC1CC1` [Example 148] as the compound, how does the Emax read?
A: -12%

Q: Which Emax does the source give for `CC(C)CCN(CCC(C)C)C(=O)c1ccc2nc(-c3ccc(Cl)cc3)c(CCCN(C)C)n2c1` [Example 20] here?
A: -18%

Q: With `COc1cccc(-c2nc3ccc(C(=O)N(CCC(C)C)CCC(C)C)cn3c2CCCN(C)C)c1` [Example 28] as the compound, how does the Emax read?
A: 0%

Q: How did the Emax turn out when `COc1ccc(-c2nc3ccc(C(=O)N(CCC(C)C)CCC(C)C)cn3c2CCCN(C)C)cc1` [Example 5] was run?
A: 0%

Q: `CC(C)CCN(CCC(C)C)C(=O)c1ccc2nc(-c3ccccc3)c(CN3CCC(N)CC3)n2c1` [Example 133] was tested. Which Emax did it give?
A: 0%

same assay, conditions: agonistic activity, cAMP, HEK293 membrane preparations; read-out: hMC-4R functional assay EC50/μM

Q: For `CC(C)CCN(CCC(C)C)C(=O)c1ccc2nc(-c3cccnc3N)c(CCCN3CCCC3)n2c1` [Example 90], which EC50 is on record?
A: > 1 µM

Q: How did the EC50 turn out when `CC(C)CCN(CCC(C)C)C(=O)c1ccc2nc(-c3ccc(Cl)cc3)c(CCCN(C)C)n2c1` [Example 20] was run?
A: < 0.1 µM
